Molecules are shown by their SMILES.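 Method: 48-hour compound exposure of cells in 96-well plates, five concentrations, linear interpolation of endpoints. The concentration for 50% growth inhibition is given as GI50.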 Calls of active or inactive are those of the source. Rule as the data show it: active = GI50 up to about 1.1 µM and inactive = higher.

Among the test systems are NCI-H226; HCC 2998; HCT-15; Malme-3M; RPMI-8226; M19-MEL; OVCAR-5; HOP-92; EKVX; NCI-H460; SR; UACC-62; OVCAR-8; SNB-75; SK-MEL-2; NCI-H23; SF-539; MDA-MB-231; T47D; NCI/ADR-RES.
Assay in all cases: NCI tumour cell line growth inhibition, 48 h

With `COCCOCOC(C)(C)[C@H](CCOC(C)=O)O[Si](c1ccccc1)(c1ccccc1)C(C)(C)C`, the GI50 in the test with NCI-H226 was 3.72 µM (inactive); in the test on HCC 2998 it was 9.1 µM (inactive); in the test on HCT-15, 20.3 µM; in the test with Malme-3M it was 16.6 µM (inactive); in the test with RPMI-8226, 3.96 µM (inactive); with M19-MEL, 13.1 µM (inactive). Besides, the GI50 in the test with OVCAR-5 is 16.8 µM (inactive); with HOP-92, 5.61 µM (inactive); in the test on EKVX, 27.2 µM (inactive); in the test on NCI-H460, 5.74 µM (inactive); with SR, 4.42 µM (inactive); in the test on UACC-62, 15.7 µM (inactive). The GI50 with OVCAR-8 was 11.9 µM (inactive); in the test on SNB-75 it was 38.7 µM (inactive); with SK-MEL-2 it was 18.6 µM (inactive); with NCI-H23, 10.5 µM (inactive).
Consider `CCCCNCC(=O)O[C@]1(CC)C(=O)OCc2c1cc1n(c2=O)Cc2cc3ccccc3nc2-1`, for which the GI50 was 0.105 µM (active) in the test with NCI-H226; 1.74 µM (inactive) in the test with HCC 2998; 0.0832 µM (active) in the test on SF-539; 2.15 µM in the test on HCT-15; 29.9 µM (inactive) in the test on MDA-MB-231; 2.84 µM (inactive) in the test with Malme-3M. For the same molecule, the GI50 in the test on RPMI-8226 is 0.385 µM (active); with M19-MEL, 0.63 µM (active); in the test on OVCAR-5, 0.535 µM (active); in the test on HOP-92, 1.52 µM (inactive); with EKVX, 2.98 µM (inactive); in the test on NCI-H460, 0.0261 µM (active). For the same molecule, the GI50 in the test with SR was 0.0101 µM (active); in the test on UACC-62, 0.0578 µM (active); with OVCAR-8, 0.217 µM (active); in the test with SNB-75, 0.098 µM (active); in the test on T47D, 0.219 µM (active); with SK-MEL-2 it was 3.14 µM (inactive). In addition, the figures for the GI50 in the test with NCI/ADR-RES and in the test with NCI-H23 were 0.0789 µM (active) and 0.0769 µM (active), respectively.
Regarding `CC1(C)CC(=O)C(C(=O)Nc2cccs2)=C(O)C1`, the GI50 in the test on NCI-H226 is 23.4 µM (inactive); with HCC 2998, 48.5 µM (inactive); in the test with SF-539, 36.2 µM (inactive); in the test with HCT-15, 33.9 µM; in the test with Malme-3M it was 32.1 µM (inactive); with RPMI-8226, 31 µM (inactive). Further, the GI50 in the test on M19-MEL is 41.2 µM (inactive); in the test on OVCAR-5, 44 µM (inactive); in the test with HOP-92 it was 27.6 µM (inactive); in the test with EKVX, 42 µM (inactive); in the test with NCI-H460 it was 35.9 µM (inactive); in the test with SR, 29.9 µM (inactive). The GI50 was 29.2 µM (inactive) in the test on UACC-62; 34.8 µM (inactive) in the test on OVCAR-8; 25.2 µM (inactive) in the test with SNB-75; 35.9 µM (inactive) in the test on SK-MEL-2; 30 µM (inactive) with NCI-H23.
Consider `CCOC(=O)Nc1ccc2c(c1)N(C(=O)CCN(CC)CC)c1ccccc1S2` [ETHACIZINE], for which the GI50 in the test with NCI-H226 is 51.2 µM (inactive); in the test on HCC 2998, 17.3 µM (inactive); with SF-539 it was 21.1 µM (inactive); in the test on HCT-15 it was 30.4 µM; in the test with MDA-MB-231 it was 26.1 µM (inactive); in the test on Malme-3M, 18.7 µM (inactive). Also, the GI50 in the test with RPMI-8226 was 17.9 µM (inactive); in the test on M19-MEL, 32.1 µM (inactive); in the test with OVCAR-5, 57.1 µM (inactive); with HOP-92, 18.9 µM (inactive); with EKVX, > 35.9 µM (inactive); with NCI-H460 it was 20.1 µM (inactive). The GI50 in the test with SR is 17.5 µM (inactive); in the test with UACC-62, 21.5 µM (inactive); in the test with OVCAR-8, 25 µM (inactive); in the test on SNB-75, 2.09 µM (inactive); in the test on T47D, 27.4 µM (inactive); with SK-MEL-2 it was 22 µM (inactive). The GI50 in the test with NCI/ADR-RES was 45.2 µM (inactive); in the test on NCI-H23 it was 31.8 µM (inactive).
Consider `CCOc1ccc(/C(C=O)=C(\Cl)c2ccc(OC)cc2)cc1`, for which the GI50 was > 100 µM (inactive) with NCI-H226; 82.6 µM (inactive) in the test with HCC 2998; > 100 µM (inactive) in the test on SF-539; 28.6 µM with HCT-15; > 100 µM (inactive) with MDA-MB-231; > 70.5 µM (inactive) with Malme-3M. The GI50 is 5.73 µM (inactive) with RPMI-8226; > 100 µM (inactive) with M19-MEL; > 100 µM (inactive) in the test with OVCAR-5; 69.3 µM (inactive) in the test on HOP-92; > 52 µM (inactive) in the test on EKVX; > 100 µM (inactive) in the test on NCI-H460. Besides, the GI50 in the test on SR was 5.16 µM (inactive); in the test on UACC-62, > 51.9 µM (inactive); in the test with OVCAR-8, > 100 µM (inactive); with SNB-75 it was 36.6 µM (inactive); in the test on T47D, 24.2 µM (inactive); in the test on SK-MEL-2, > 100 µM (inactive). The GI50 in the test with NCI/ADR-RES was 77.4 µM (inactive); with NCI-H23 it was > 100 µM (inactive).
For `CC(=O)O[C@H]1[C@@H]2[C@@H]3[C@@H](C[C@H]1C)[C@@H](C)CO[C@@]1(C)CC/C=C(/C)C[C@@H]2O[C@@H]31`, the GI50 with NCI-H226 was > 100 µM (inactive); in the test with HCC 2998, 56.2 µM (inactive); with SF-539, > 100 µM (inactive); in the test with HCT-15 it was over 100 µM; in the test with Malme-3M, > 100 µM (inactive); in the test with RPMI-8226 it was > 100 µM (inactive). In addition, the GI50 with M19-MEL, in the test on OVCAR-5, with HOP-92, in the test on EKVX, with NCI-H460 and with SR was > 100 µM (inactive) in each case. In addition, the GI50 with UACC-62, in the test on OVCAR-8, in the test on SNB-75, with SK-MEL-2 and with NCI-H23 was > 100 µM (inactive) each time.
As for `O=C1NC(Cc2ccc(O)cc2)C(=O)N2CCCC12` (stereo not drawn), the GI50 with NCI-H226 is > 100 µM (inactive); with HCC 2998, > 100 µM (inactive); in the test with SF-539, > 100 µM (inactive); with HCT-15 it was over 100 µM; with Malme-3M, > 100 µM (inactive); with RPMI-8226, > 100 µM (inactive). In addition, the GI50 in the test on M19-MEL, with OVCAR-5, in the test with HOP-92, with EKVX, with NCI-H460 and with SR was > 100 µM (inactive) throughout. For the same molecule, the GI50 with UACC-62, with OVCAR-8, with SNB-75 and in the test with SK-MEL-2 was > 100 µM (inactive) each time.
In the case of `COc1ccc(/C=C2\CCC(Cc3ccccc3)(CN(C)C)C2=O)cc1` (stereo not drawn), the GI50 is 42 µM (inactive) in the test with NCI-H226; 24.4 µM (inactive) with HCC 2998; 57 µM (inactive) with SF-539; 26.7 µM with HCT-15; 98.9 µM (inactive) in the test with MDA-MB-231; 42.3 µM (inactive) in the test on Malme-3M. Moreover, the GI50 in the test on RPMI-8226 is 22.2 µM (inactive); in the test with M19-MEL it was 28.4 µM (inactive); in the test with OVCAR-5, > 96.2 µM (inactive); in the test with HOP-92, 53.3 µM (inactive); with EKVX, 42.5 µM (inactive); with NCI-H460, 67.3 µM (inactive). For the same molecule, the GI50 in the test on SR is 20.6 µM (inactive); in the test on UACC-62 it was 36.9 µM (inactive); in the test on OVCAR-8, 41.6 µM (inactive); in the test on SNB-75, 94.2 µM (inactive); with T47D it was 46.7 µM (inactive); in the test on SK-MEL-2, 60.4 µM (inactive). For the same molecule, the GI50 in the test on NCI/ADR-RES is 42.2 µM (inactive); in the test on NCI-H23, 44 µM (inactive).
As for `C[C@]12CCC(=O)C=C1CC[C@@H]1[C@@H]2C(=O)C[C@@]2(C)[C@H]1CC[C@]2(O)C(=O)CO` [CORTISONE], the GI50 in the test on NCI-H226 is > 100 µM (inactive); with HCC 2998 it was > 100 µM (inactive); in the test on SF-539, > 100 µM (inactive); with HCT-15, over 100 µM; in the test on Malme-3M, > 100 µM (inactive); in the test with RPMI-8226 it was > 100 µM (inactive). For the same molecule, the GI50 in the test on M19-MEL, in the test with HOP-92, with EKVX, in the test on NCI-H460, with SR and in the test with OVCAR-8 was > 100 µM (inactive) each time. Also, the GI50 with SNB-75, in the test with SK-MEL-2 and in the test with NCI-H23 was > 100 µM (inactive) in each case.
As to `CCCCCCCCC[C@@H]1CC(=O)OCC2OC(O[C@H](CCCCCCCCC)CC(=O)OCC3OC(O[C@H](CCCCCCCCC)CC(=O)OCC4OC(O1)C(O)C(O)C4O)C(O)C(O)C3O)C(O)C(O)C2O` (stereo partly drawn), the GI50 in the test on NCI-H226 is 3.9 µM (inactive); in the test with HCC 2998, 12 µM (inactive); in the test with SF-539, 10.3 µM (inactive); in the test with HCT-15, 5.43 µM; in the test on Malme-3M, 8.83 µM (inactive); in the test on RPMI-8226 it was 14.5 µM (inactive). The GI50 with M19-MEL is 4.42 µM (inactive); in the test with OVCAR-5, 10.7 µM (inactive); with HOP-92, 7.05 µM (inactive); with EKVX it was 12 µM (inactive); in the test on NCI-H460, 5.13 µM (inactive); in the test with SR, 6.7 µM (inactive). The GI50 is 14.9 µM (inactive) in the test with UACC-62; 14.3 µM (inactive) in the test on OVCAR-8; 9.27 µM (inactive) with SNB-75; 8.67 µM (inactive) in the test on SK-MEL-2; 16 µM (inactive) in the test with NCI-H23.
As for `CCN(CC)CC[n+]1ccc2c(C)c3[nH]c4ccc(O)cc4c3c(C)c2c1`, the GI50 in the test with NCI-H226 is 1.05 µM (active); with HCC 2998 it was 6.15 µM (inactive); in the test with SF-539 it was 3.89 µM (inactive); in the test on HCT-15, 18.7 µM; in the test on MDA-MB-231 it was 10.6 µM (inactive); in the test on Malme-3M it was 5.83 µM (inactive). The GI50 with RPMI-8226 was 7.31 µM (inactive); in the test on M19-MEL, 1.21 µM (inactive); in the test on OVCAR-5, 15.9 µM (inactive); in the test on HOP-92, 3.85 µM (inactive); in the test on EKVX, 10.8 µM (inactive); with NCI-H460 it was 0.434 µM (active). Moreover, the GI50 in the test with SR was 0.0278 µM (active); with UACC-62 it was 6.56 µM (inactive); with OVCAR-8, 3.72 µM (inactive); in the test with SNB-75 it was 1 µM (active); with T47D, 2.67 µM (inactive); in the test with SK-MEL-2, 16 µM (inactive). Moreover, the GI50 in the test on NCI/ADR-RES is 14.6 µM (inactive); in the test with NCI-H23 it was 3.82 µM (inactive).

The values above are taken from ChEMBL document CHEMBL1201862, “PubChem BioAssay data set” (2004).
